{
  "source": "patent US8221775B2",
  "about": "“Pyrrolin-2-ylamino compounds for combating animal pests” (BASF SE, priority 2008, dated 2012)",
  "data": [
    {"smiles": "Brc1ccc(C2CCC(NC(Cc3ccccc3)c3ccccc3)=N2)cc1", "note": "(stereo not shown)", "values": [
      {"measurement": "melting point", "value": "130 to 134", "unit": "°C"}
    ]}
  ]
}
